One may read the IC50 as the concentration at which inhibition is half-maximal.

From patent publication US20080287445A1, “Prokineticin 2 receptor antagonists” (priority 2005, published 2008) come the findings set out here.

Several values for one entry are separate records, joined by “and”; a condition that tells them apart may be missing. Identical values can stand only once. A value given as a limit tells only on which side of the number the result lay.

In assay [1] the target is T1, GPR73 (prokineticin 1 receptor) (Homo sapiens, UniProt Q8TCW9).
T1 construct: expressed in transfected cells; host or cells: HEK 293
T1 sequence (Q8TCW9 whole entry, species assumed): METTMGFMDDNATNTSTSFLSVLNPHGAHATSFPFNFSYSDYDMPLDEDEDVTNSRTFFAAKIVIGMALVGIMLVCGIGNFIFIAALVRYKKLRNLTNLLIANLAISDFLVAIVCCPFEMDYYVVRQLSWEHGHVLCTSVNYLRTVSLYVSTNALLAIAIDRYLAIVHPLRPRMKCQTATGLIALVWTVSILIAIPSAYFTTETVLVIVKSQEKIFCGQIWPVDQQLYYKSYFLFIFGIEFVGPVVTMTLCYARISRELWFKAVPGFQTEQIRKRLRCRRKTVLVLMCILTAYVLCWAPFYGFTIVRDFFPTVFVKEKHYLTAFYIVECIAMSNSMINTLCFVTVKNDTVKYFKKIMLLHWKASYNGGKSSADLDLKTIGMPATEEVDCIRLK
The assay is described as follows: PK1 functional assay: Ca2+ mobilization screening for PK1 antagonists on the FLIPR. It is filed as cell-based. The settings on record: HEK 293 GPR73 cells, multiple values = multiple testing; for Ca^2+ Mobilization % Inh @ 10 μM: 10 μM compound; for inhibition at 10 µM: HEK293, 10 μM compound, read-out: Ca^2+ Mobilization % Inh @ 10 μM; for IC50: PK1 ligand preparation at its EC50, read-out: Ca^2+ Mobilization IC50. The procedure, abridged:
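HEK293 cells expressing human GPR73 were loaded with Calcium Plus dye, then on FLIPR given compound for 4 min 15 s before PK1 ligand at its predetermined EC50. Baseline-subtracted fluorescence over 1 min 45 s gave percent inhibition versus maximal signal; IC50 fitted.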
A general note: Calcium assays in cells follow changes in intracellular calcium, usually with a dye or a luminescent sensor.

Assay [2] has as its system Cholera toxin evoked increase in baseline Isc. Further details: species or system rat.
Assay [3] concerns ileum mucosal tissues from PK1 receptor knock-out mice. The experiment in a line: PK1-evoked Isc in ileum mucosal tissues from PK1 receptor knock-out mice. The note with it: exogenous PK1 peptide.

As to `COc1ccc(Cn2c(NCc3cccnc3N)nc(=O)n(Cc3ccc(OC)cc3)c2=O)cc1` [Cpd 3, 6-[(2-Amino-pyridin-3-ylmethyl)-amino]-1,3-bis-(4-methoxy-benzyl)-1H-[1,3,5]triazine-2,4-dione], in assay [1], the “Ca^2+ Mobilization % Inh @ 10 μM” value was 94% and 100%; the inhibition at 10 µM amounted to 83%; the IC50 was 34 nM and 61 nM and 82 nM. In addition, in assay [2], the “suppression of Cholera toxin-evoked increase in Isc (in words)” value is recorded as “suppresses” and the “suppression of sustained increase in baseline Isc evoked by Cholera toxin” value was 50-60%.

As for `Cc1cc(C)c(CNc2nc(=O)n(Cc3ccc4c(c3)nnn4C)c(=O)n2Cc2ccc(OC(F)F)cc2)c(N)n1` [Cpd 221], in assay [1], the “Ca^2+ Mobilization % Inh @ 10 μM” value amounted to 96%; the inhibition at 10 µM came out at 98%; the IC50 is 45 nM and 72 nM.

As to `COc1ccc(Cn2c(=O)nc(NCc3cnc(C)cc3C)n(Cc3ccc4[nH]ccc4c3)c2=O)cc1` [Cpd 130], in assay [1], the inhibition at 10 µM was determined as 92% and the IC50 was determined as 245 nM.

As for `C=CCC(c1ccc(OC)cc1)n1c(=O)nc(NCc2cccnc2N)n(Cc2ccc(OC)cc2)c1=O` (centres unmarked) [Cpd 48], in assay [1], the inhibition at 10 µM was found to be 75% and the IC50 came to 956 nM.

As to `COc1ccc(Cn2c(NCc3cccnc3NCCC(C)C)nc(=O)n(Cc3ccc(OC)cc3)c2=O)cc1` [Cpd 67], in assay [1], the inhibition at 10 µM amounted to 55% and the IC50 was found to be 4820 nM.

For the molecule `CCCCCCn1c(NCc2cccnc2N)nc(=O)n(Cc2ccc(OC)cc2)c1=O` [Cpd 79], in assay [1], the inhibition at 10 µM was 85% and the IC50 was found to be 679 nM.

For the molecule `COc1ccc(Cn2c(NCc3cccnc3N)nc(=O)n(Cc3ccc(I)cc3)c2=O)cc1` [Cpd 89], in assay [1], the inhibition at 10 µM is 82% and the IC50 is 817 nM.

On to `Cc1cc(C)c(CNc2nc(=O)n(Cc3ccc4snnc4c3)c(=O)n2Cc2ccc3c(c2)CCO3)cn1` [Cpd 243], for which, in assay [1], the inhibition at 10 µM was 75% and the IC50 was determined as 914 nM.

Regarding `COCCNc1ncccc1CNc1nc(=O)n(CCc2ccc([N+](=O)[O-])cc2)c(=O)n1Cc1ccc(OC)cc1` [Cpd 74], in assay [1], the inhibition at 10 µM was 54% and the IC50 stood at 7460 nM.

Regarding `COc1ccc(Cn2c(NCc3cccnc3N)cc(=O)n(Cc3ccc(OC)cc3)c2=O)cc1` [Cpd 26], in assay [1], the inhibition at 10 µM stood at 84% and the IC50 stood at 45 nM.

Regarding `COCCNc1ncccc1CNc1nc(=O)n(CCOc2ccccc2)c(=O)n1Cc1ccc(OC)cc1` [Cpd 72], in assay [1], the inhibition at 10 µM came to 81% and the IC50 was 1170 nM.

In the case of `COc1ccc(Cn2c(NCc3cccnc3N)nc(=O)n(Cc3ccc(F)cc3)c2=O)cc1` [Cpd 8], in assay [1], the “Ca^2+ Mobilization % Inh @ 10 μM” value is reported as 86%; the inhibition at 10 µM amounted to 89%; the IC50 was 535 nM and 669 nM.

Turning to `Nc1cc(Cn2c(=O)nc(NCc3cccnc3N)n(Cc3ccc4c(c3)CCO4)c2=O)ccc1O` [Cpd 269], in assay [1], the inhibition at 10 µM turned out to be 22% and the IC50 was more than 10000 nM.

As to `COc1ccc(Cn2c(=O)nc(NCc3c(C)cc(C)nc3N)n(Cc3ccc4c(c3)CC(C)O4)c2=O)cc1` (centres unmarked) [Cpd 212], in assay [1], the “Ca^2+ Mobilization % Inh @ 10 μM” value amounted to 99%; the inhibition at 10 µM turned out to be 103%; the IC50 is 21 nM and 50 nM.

For the molecule `COc1ccc(Cn2c(NCc3cccnc3N)nc(=O)n(Cc3ccc(Cl)cc3)c2=O)cc1` [Cpd 231], in assay [1], the inhibition at 10 µM came to 89% and the IC50 was determined as 245 nM.

Turning to `COc1ccc(Cn2c(NCc3cccnc3N)nc(=O)n(CCOc3ccc(F)cc3)c2=O)cc1` [Cpd 141, 6-[(2-Amino-pyridin-3-ylmethyl)-amino]-3-[2-(4-fluoro-phenoxy)-ethyl]-1-(4-methoxy-benzyl)-1H-[1,3,5]triazine-2,4-dione], in assay [1], the inhibition at 10 µM came out at 82% and the IC50 amounted to 1130 nM.

For `COc1ccc(Cn2c(=O)nc(NCc3cccnc3N)n(CC3CCC(OC)CC3)c2=O)cc1` (centres unmarked) [Cpd 149], in assay [1], the inhibition at 10 µM is 86% and the IC50 is 788 nM.

As for `COc1ccc(Cn2c(OC(C)c3ccnc(N)c3)cc(=O)n(Cc3ccc(OC)cc3)c2=O)cc1` (centres unmarked) [Cpd 225], in assay [1], the inhibition at 10 µM turned out to be 68% and the IC50 worked out at 3780 nM.

With `COc1ccc(Cn2c(NCc3cccnc3N)nc(=O)n(Cc3ccc(C(F)(F)F)cc3)c2=O)cc1` [Cpd 49], in assay [1], the inhibition at 10 µM worked out at 64% and the IC50 is 3170 nM.

With `Nc1cccc(CNc2nc(=O)n(Cc3ccc(F)cc3)c(=O)n2Cc2ccc(OC(F)F)cc2)n1` [Cpd 156], in assay [1], the inhibition at 10 µM was 70% and the IC50 is 3220 nM.

In the case of `COc1ccc(Cn2c(NCc3cccnc3NCCN(C)C)nc(=O)n(Cc3ccc(F)cc3)c2=O)cc1` [Cpd 27], in assay [1], the inhibition at 10 µM turned out to be 102% and the IC50 turned out to be 88 nM.

Take `CCN1CCCC1CNc1ncccc1CNc1nc(=O)n(Cc2ccc(OC)cc2)c(=O)n1Cc1ccc(OC)cc1` (centres unmarked) [Cpd 70]: in assay [1], the inhibition at 10 µM was found to be 94% and the IC50 was 560 nM.

Regarding `COc1ccc(Cn2c(NCc3cccnc3N)nc(=O)n(CC3COc4ccccc4O3)c2=O)cc1` (centres unmarked) [Cpd 120], in assay [1], the inhibition at 10 µM came out at 40% and the IC50 was more than 10000 nM.

As for `COc1ccc(Cn2c(NCc3ccc(C(F)(F)F)nc3)nc(=O)n(Cc3ccc(OC)cc3)c2=O)cc1` [Cpd 122], in assay [1], the inhibition at 10 µM amounted to 76% and the IC50 is 194 nM.

As to `COc1ccc(Cn2c(CNCc3cccnc3N)cc(=O)n(Cc3ccc(OC)cc3)c2=O)cc1` [Cpd 7, 6-{[(2-Amino-pyridin-3-ylmethyl)-amino]-methyl}-1,3-bis-(4-methoxy-benzyl)-1H-pyrimidine-2,4-dione], in assay [1], the inhibition at 10 µM came to 60% and the IC50 was 6200 nM.

As to `COc1ccc(Cn2c(NCc3cccnc3NCCSC)nc(=O)n(Cc3ccc(OC)cc3)c2=O)cc1` [Cpd 66], in assay [1], the inhibition at 10 µM was 92% and the IC50 stood at 401 nM.

B1: PK1: Recombinant human prokineticin-1 expressed in HEK 293 cells, FLAG epitope cleaved; preparation holds full-length and a four C-terminal residue truncated product (protein, UniProt P58294 20-105, looked up)
Prokineticin-1: AVITGACERDVQCGAGTCCAISLWLRGLRMCTPLGREGEECHPGSHKVPFFRKRKHHTCPCLPNLLCSRFPDGRYRCSMDLKNINF
modifications: mixture with C-terminally truncated product
Regarding B1, the “change in Isc compared to wild-type littermates” value in assay [3] is reported as “failed to elicit a significant change in Isc”.
